Measured values: patent publication US11564394B2, “Distorted gold (I)-phosphine complexes and methods for use as antifungal agents” (University of Kentucky Research Foundation, priority 2019, dated 2023)
In brackets after ≈: the same amount, converted by molar mass. Like-named read-outs stand apart in the source and are kept apart here.

Experiments:
[1] = tested on: C. auris AR Bank # 0387 (strain VI); test: MIC determination (broth microdilution); assay type: cell-based, Candida auris; conditions: strain VI = C. auris AR Bank # 0387; MIC-0; 48 h (CAS read at 24 h)
[2] = tested on: C. albicans ATCC MYA-2310(S) (strain D); test: MIC determination (broth microdilution); assay type: cell-based, Candida albicans; conditions: strain D = C. albicans ATCC MYA-2310(S); MIC-0; 48 h; listed as printed beside letter E
[3] = tested on: C. auris AR Bank # 0390 (strain L) biofilm; assay type: cell-based, Candida auris; conditions: treated at 0 h, XTT
Candida spp. biofilms = conditions: biofilms of Candida spp.
Description: For assays with a pre-formed biofilm, 100 μL of fungal cells were aliquoted in a 96-well plate, leaving one column empty for the sterile control. After 24 h incubation at 37° C., visible biofilms had formed in the well. The biofilm was washed three times with 100 μL of PBS. […] Plates were incubated at 37° C. for 24 h. Finally, the plates were washed three times with PBS before adding 100 μL of XTT dye. The XTT was prepared by dissolving XTT at 0.5 mg/mL concentration in sterile PBS. Before adding to a plate, 1 μL of 10 mM menadione in acetone was added to 10 mL of the 0.5 mg/mL solution of XTT. After addition of XTT (containing menadione), the plates were incubated for 3 h at 37° C. in the dark. 80 μL of liquid from each well was transferred to a new plate and then with the plate reader for absorbance at 450 nm. For these experiments, we determined the sessile MIC (SMIC90), which is defined as the compound concentration required to inhibit the metabolic activity of biofilm by 90% compared to the growth control (Table 3). […] Each assay was performed in duplicate.

[4] = tested on: F. graminearum 053 (strain T); assay type: cell-based, Fusarium graminearum; conditions: strain T = F. graminearum 053; MIC-0; room temperature, 5 days
[5] = tested on: C. glabrata ATCC 2001 (strain H) biofilm; test: Prevention of biofilm formation (XTT); assay type: cell-based, Candida glabrata; conditions: treated at 0 h
[6] = tested on: C. albicans ATCC 10231 (strain B) biofilm; test: Prevention of biofilm formation (XTT); assay type: cell-based, Candida albicans; conditions: treated at 0 h, 90% decrease in metabolic activity (XTT)
[7] = tested on: C. auris AR Bank # 0389 (strain VIII); test: MIC determination (broth microdilution); assay type: cell-based, Candida auris; conditions: strain VIII = C. auris AR Bank # 0389; MIC-0; 48 h (CAS read at 24 h)
[8] = tested on: A. flavus ATCC MYA-3631 (strain S); test: MIC determination (broth microdilution); assay type: cell-based, Aspergillus flavus; conditions: strain S = A. flavus ATCC MYA-3631; MIC-0; 72 h at 35° C.
[9] = tested on: C. auris AR Bank # 0386 (strain V); test: MIC determination (broth microdilution); assay type: cell-based, Candida auris; conditions: strain V = C. auris AR Bank # 0386; MIC-0; 48 h (CAS read at 24 h)
[10] = tested on: C. albicans ATCC 10231(R) (strain B); assay type: cell-based, Candida albicans
[11] = tested on: C. neoformans ATCC MYA-85 (strain M); test: MIC determination (broth microdilution); assay type: cell-based, Cryptococcus neoformans; conditions: strain M = C. neoformans ATCC MYA-85; MIC-0; 72 h at 35° C.
[12] = tested on: A. nidulans ATCC 38163 (strain Q); test: MIC determination (broth microdilution); assay type: cell-based, Aspergillus nidulans; conditions: strain Q = A. nidulans ATCC 38163; MIC-0; 72 h at 35° C.
[13] = tested on: C. parapsilosis ATCC 22019 (strain J); test: MIC determination (broth microdilution); assay type: cell-based; conditions: strain J = C. parapsilosis ATCC 22019; MIC-0; 48 h; listed as printed beside letter K
[14] = tested on: C. krusei ATCC 6258 (strain I); test: MIC determination (broth microdilution); assay type: cell-based; conditions: strain I = C. krusei ATCC 6258; MIC-0; 48 h; listed as split over r16 and r17 (r17 printed beside letter J)
[15] = tested on: C. auris AR Bank # 0390 (strain L) pre-formed biofilm; assay type: cell-based, Candida auris; conditions: biofilm treated at 24 h, XTT
[16] = tested on: C. glabrata ATCC 2001 (strain H) pre-formed biofilm; test: Disruption of pre-formed biofilm (XTT); assay type: cell-based, Candida glabrata; conditions: for Pre-formed biofilm SMIC90: biofilm treated at 24 h, XTT
[17] = tested on: A. terreus ATCC MYA-3633 (strain R); assay type: cell-based, Aspergillus terreus; conditions: strain R = A. terreus ATCC MYA-3633; MIC-0; 72 h at 35° C.
[18] = tested on: C. auris AR Bank # 0381 (strain I); test: MIC determination (broth microdilution); assay type: cell-based, Candida auris; conditions: strain I = C. auris AR Bank # 0381; MIC-0; 48 h (CAS read at 24 h)
[19] = tested on: C. neoformans CN2 (strain O); test: MIC determination (broth microdilution); assay type: cell-based, Cryptococcus neoformans; conditions: MIC-0, 72 h at 35° C.
[20] = tested on: C. glabrata ATCC 2001 (strain H); test: MIC determination (broth microdilution); assay type: cell-based, Candida glabrata; conditions: strain H = C. glabrata ATCC 2001; MIC-0; 48 h at 35° C.
[21] = tested on: C. auris AR Bank # 0383 (strain III); test: MIC determination (broth microdilution); assay type: cell-based, Candida auris; conditions: strain III = C. auris AR Bank # 0383; MIC-0; 48 h (CAS read at 24 h)
[22] = tested on: C. auris AR Bank # 0384 (strain K) biofilm; assay type: cell-based, Candida auris; conditions: treated at 0 h, XTT
[23] = strain B = C. albicans ATCC 10231(R), MIC-0, 48 h, listed as split over r8 and r9 (r9 printed beside letter C)

| Compound | MIC [2] | MIC (in parentheses) [2] | Biofilm prevention SMIC90 [3] | MIC [4] | MIC (in parentheses) [4] | Biofilm prevention SMIC90 [5] | Biofilm prevention SMIC90 [6] | MIC [8] | MIC (in parentheses) [8] | MIC [11] | MIC (in parentheses) [11] | MIC [13] | MIC (in parentheses) [13] | MIC [14] | MIC (in parentheses) [14] | Pre-formed biofilm SMIC90 [15] | Pre-formed biofilm SMIC90 [16] | MIC [17] | MIC (in parentheses) [17] | MIC [19] | also measured |
| --- | --- | --- | --- | --- | --- | --- | --- | --- | --- | --- | --- | --- | --- | --- | --- | --- | --- | --- | --- | --- | --- |
| bis-[1,2-bis[(2S,5S)-2,5-dimethylphospholano]benzene]gold(I) [Compound 4] | 0.98 µg/mL | 1.2 µM | 3.9 µg/mL | 3.9 µg/mL | 4.6 µM | 3.9 µg/mL | 3.9 µg/mL | 7.8 µg/mL | 9.2 µM | 0.98 µg/mL | 1.2 µM | 0.98 µg/mL | 1.2 µM | 1.95 µg/mL | 2.3 µM | 15.6 µg/mL | 7.8 µg/mL | 1.95 µg/mL | 2.3 µM | 0.98 µg/mL | MIC [1]: 1.95 µg/mL; MIC (in parentheses) [1]: 2.3 µM; activity against biofilms (Candida spp. biofilms): good activity; MIC [7]: 1.95 µg/mL; MIC (in parentheses) [7]: 2.3 µM; MIC [9]: 1.95 µg/mL; MIC (in parentheses) [9]: 2.3 µM; MIC [10]: 1.95 (2.3) μg/mL; MIC (in parentheses) [10]: 1.95 (2.3) μM; MIC [12]: 3.9 µg/mL; MIC (in parentheses) [12]: 4.6 µM; SMIC90 of pre-formed biofilm relative to MIC with planktonic cells [16]: 4 fold; MIC [18]: 0.98 µg/mL; MIC (in parentheses) [18]: 1.2 µM; MIC (in parentheses) [19]: 1.2 µM; MIC [20]: 1.95 µg/mL; MIC (in parentheses) [20]: 2.3 µM; MIC [21]: 1.95 µg/mL; MIC (in parentheses) [21]: 2.3 µM; Biofilm prevention SMIC90 [22]: 3.9 µg/mL |
| CC(=O)OC[C@H]1O[C@@H]([S-])[C@H](OC(C)=O)[C@@H](OC(C)=O)[C@@H]1OC(C)=O.CCP(CC)CC.[Au+] [Auranofin, auranofin, reference compound] | > 31.3 µg/mL | > 46.1 µM | >31.3 µg/mL | > 31.3 µg/mL | > 46.1 µM | 31.3 µg/mL | 7.8 µg/mL | > 31.3 µg/mL | > 46.1 µM | ≤ 0.06 µg/mL | ≤ 0.1 µM | > 31.3 µg/mL | > 46.1 µM | 31.3 µg/mL | 46.1 µM | >31.3 µg/mL | >31.3 µg/mL | 7.8 µg/mL | 11.5 µM | 7.8 µg/mL | MIC [10, 23]: > 31.3 µg/mL; MIC (in parentheses) [10, 23]: > 46.1 µM; MIC [12]: 3.9 µg/mL; MIC (in parentheses) [12]: 5.7 µM; Pre-formed biofilm SMIC90 ([16]; listed as auranofin): inactive; MIC (in parentheses) [19]: 11.5 µM; MIC [20]: > 31.3 µg/mL; MIC (in parentheses) [20]: > 46.1 µM; Biofilm prevention SMIC90 [22]: >31.3 µg/mL |
| C[C@@H]1[C@H](O)[C@@H](C)/C=C/C=C/C=C/C=C/C=C/C=C/C=C/[C@H](O[C@@H]2O[C@H](C)[C@@H](O)[C@H](N)[C@@H]2O)C[C@@H]2O[C@](O)(C[C@@H](O)C[C@@H](O)[C@H](O)CC[C@@H](O)C[C@@H](O)CC(=O)O[C@H]1C)C[C@H](O)[C@H]2C(=O)O [AmB, amphotericin B, reference compound] | 7.8 µg/mL (≈ 8.44 µM) | 8.4 µM (≈ 7.76 µg/mL) | 1.95 µg/mL | 7.8 µg/mL (≈ 8.44 µM) | 8.4 µM (≈ 7.76 µg/mL) | 0.98 µg/mL | 0.98 µg/mL | 31.3 µg/mL (≈ 33.9 µM) | 33.8 µM (≈ 31.2 µg/mL) | > 31.3 µg/mL | > 33.9 µM | 3.9 µg/mL (≈ 4.22 µM) | 4.2 µM (≈ 3.88 µg/mL) | 3.9 µg/mL (≈ 4.22 µM) | 4.2 µM (≈ 3.88 µg/mL) | 7.8 µg/mL | 7.8 µg/mL | 7.8 µg/mL (≈ 8.44 µM) | 8.4 µM (≈ 7.76 µg/mL) | 1.95 µg/mL (≈ 2.11 µM) | MIC [1]: 1.95 µg/mL (≈ 2.11 µM); MIC (in parentheses) [1]: 2.1 µM (≈ 1.94 µg/mL); MIC [7]: 1.95 µg/mL (≈ 2.11 µM); MIC (in parentheses) [7]: 2.1 µM (≈ 1.94 µg/mL); MIC [9]: 1.95 µg/mL (≈ 2.11 µM); MIC (in parentheses) [9]: 2.1 µM (≈ 1.94 µg/mL); MIC [10, 23]: 1.95 µg/mL (≈ 2.11 µM); MIC (in parentheses) [10, 23]: 2.1 µM (≈ 1.94 µg/mL); SMIC90 of pre-formed biofilm relative to MIC with planktonic cells [16]: 2 fold; MIC [18]: 1.95 µg/mL (≈ 2.11 µM); MIC (in parentheses) [18]: 2.1 µM (≈ 1.94 µg/mL); MIC (in parentheses) [19]: 2.1 µM (≈ 1.94 µg/mL); MIC [20]: 3.9 µg/mL (≈ 4.22 µM); MIC (in parentheses) [20]: 4.2 µM (≈ 3.88 µg/mL); MIC [21]: 1.95 µg/mL (≈ 2.11 µM); MIC (in parentheses) [21]: 2.1 µM (≈ 1.94 µg/mL); Biofilm prevention SMIC90 [22]: 1.95 µg/mL |
